In patent publication US20110038835A1, “ANILIDES AND ANALOGS AS RHO KINASE INHIBITORS” (The Scripps Research Institute, priority 2007, published 2011):

Columns and labels:
N2a cells = assay: Neurite length assay (N2a cell assay); type: cell-based; details: Mus musculus, compound 1 h, neurite retraction induced by 5 uM LPA
Protocol: Neurite Length Assay (N2a, Cell Assay).
N2a cells are maintained in DMEM/FBS at 37 C and 5% CO2. For the experiment the cells were plated on a poly-D-lysine coated 96-well tissue culture plate. After attachment, cell differentiation was induced for 2 days by addition of 10 uM retinoic acid. Cells were treated for 1 h with a dilution of compounds in 0.3% DMSO final concentration before neurite retraction was induced by 5 uM LPA. Cells were stained for tubulin and nuclei and images were acquired on a INCell 1000 workstation. Images were analyzed using the developer toolbox and neurite length was quantitated.

A7r5 cells = assay: Myosin light chain double phosphorylation assay (ppMLC cell assay); type: cell-based; details: inhibitor 1 h, 10 μM LPA for 10 min
Protocol: Myosin Light Chain Double Phosphorylation Assays (ppMLC Cell Assay).
A7r5 cells were plated at 5000 cells/well in a 96 well Packard View Plate (Perkin Elmer) in DMEM +10% FBS. After attachment overnight, cells were serum starved for 4 h and treated with inhibitor in 0.25% DMSO final concentration for 1 h at 37° C. Cells were then treated with 10 μM lysophosphatitic acid (LPA) for 10 min. Following treatment, cells were immediately fixed with 4% paraformaldehyde for 30 minutes. After a brief wash in 0.1 M glycine, cells were permeablized in 0.2% Triton X for 10 minutes. Cells were then washed once in PBS and blocked in Li-COR blocking buffer (Li-COR Biosciences) for 1 h at 25 C. Cells were probed for either phosphorylated myosin light chain 20 (55 ng/mL), total myosin light chain (525 ng/mL) or anti-bovine α-tubulin (1 μg/mL), and incubated overnight at 4° C. Following three washes, cells were probed with goat-anti-rabbit or goat-anti-mouse IR800 (2 μg/mL in LI-COR block +0.025% Tween) for 1 h at 25° C. Nuclei were stained with TO-PRO-3 iodide (642/661) (1:4000) for 20 min, washed twice in PBS/0.05% Tween and read with an Odyssey Infrared Imaging System (LI-COR Biosciences).

ROCK-II (1-543) = ROCK-II (1-543) (UniProt Q62868); assay: Enzymatic Rho kinase assay (Kinase-Glo, S6-peptide phosphorylation); type: biochemical; details: 20 μM ATP, 20 μM S6-peptide, 50 min at RT
Protocol: Enzymatic Rho Kinase (ROCK I and ROCK II) Assays.
The assay is based on ability of Rhok2 to phosphorylate a specific peptide sequence derived from its substrate—ribosomal protein S6 (amino acid residues 229-239). Rhok2 uses ATP as a donor of phosphate for the phosphorylation of the substrate, which leads to the depletion of ATP in the reaction mix. An assay kit (“Kinase-Glo”, Promega) was used to quantify enzyme activity. Using this kit, residual amounts of ATP are measured by a secondary enzymatic reaction, through which luciferase utilizes the remaining ATP to produce luminescence. Luminescent signal is directly proportional to ATP concentration and inversely proportional to Rhok2 activity.
This dose response assay was conducted in 1536 well plate format. Each concentration was tested nominally in triplicate. Protocol Summary: A 5 μL mixture of a 20 μM S6-peptide (LCB-[…]-NH2) and 20 μM ATP in Kinase buffer (50 mM Hepes pH 7.3, 10 mM MgCl2, 0.1% BSA, and 2 mM DTT) was added to the well of a plate. 20 nL of 90% DMSO/10% water containing the compound(s) to be tested (or no compound for control wells) was added. The reaction was initiated by addition of 5 μL of 8 nM ROCK-II (1-543) in Kinase buffer. […] The plate was read after 10 min incubation time at RT on the Viewlux in luminescence mode.

CN(C)CCOc1cc(-c2cn[nH]c2)c(F)cc1NC(=O)[C@H](N)c1ccc(F)cc1 [Example 26, (R)-2-amino-N-(2-(2-(dimethylamino)ethoxy)-5-fluoro-4-(1H-pyrazol-4-yl)phenyl)-2-(4-fluorophenyl)acetamide]
IC50 (N2a cells): 18 nM | IC50 (A7r5 cells): 110 nM | IC50 (ROCK-II (1-543)): 19 nM
